Laboratory results reported in PubChem BioAssay AID330 (DTP/NCI, 2004).
Several values for one entry are separate records, joined by “and”; a condition that tells them apart may be missing. Equal values may be shown once. Toxic doses and inconclusive results are not listed. Peptide text beside a SMILES is read from it. * marks the point of attachment. Boc = CC(C)(C)OC(=O)*; NHNH2 = NN*

System: P388 leukemia ip, CD2F1 mice, survival T/C
Assay: NCI In Vivo Anticancer Drug Screen. Data for tumor model P388 Leukemia (intraperitoneal) in CD2F1 (CDF1) mice
Conditions: endpoint: median survival time, higher = longer survival
Procedure, shortened: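 Mice carrying the transplanted tumor received test compound or vehicle. Survival was recorded in each group, and the value is the treated-group measurement divided by that of the vehicle-treated control group.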

[1] = dose: 25.0 mg/kg/injection, schedule: Q01DX005 (ip), vehicle: saline with Tween-80
[2] = dose: 50.0 mg/kg/injection, schedule: Q01DX005 (ip), vehicle: saline with Tween-80
[3] = dose: 50.0 mg/kg/injection, schedule: Q01DX009 (ip), vehicle: Klucel (hydroxypropylcellulose) (HPC)
[4] = dose: 100.0 mg/kg/injection, schedule: Q01DX009 (ip), vehicle: Klucel (hydroxypropylcellulose) (HPC)
[5] = dose: 200.0 mg/kg/injection, schedule: Q01DX009 (ip), vehicle: Klucel (hydroxypropylcellulose) (HPC)
[6] = dose: 12.5 mg/kg/injection, schedule: Q01DX009 (ip), vehicle: saline
[7] = dose: 50.0 mg/kg/injection, schedule: Q01DX009 (ip), vehicle: saline
[8] = dose: 100.0 mg/kg/injection, schedule: Q01DX009 (ip), vehicle: saline
[9] = dose: 200.0 mg/kg/injection, schedule: Q01DX009 (ip), vehicle: saline
[10] = dose: 50.0 mg/kg/injection, schedule: Q01DX005 (ip), vehicle: Klucel (hydroxypropylcellulose) (HPC)
[11] = dose: 100.0 mg/kg/injection, schedule: Q01DX005 (ip), vehicle: Klucel (hydroxypropylcellulose) (HPC)
[12] = dose: 200.0 mg/kg/injection, schedule: Q01DX005 (ip), vehicle: Klucel (hydroxypropylcellulose) (HPC)
[13] = dose: 30.0 mg/kg/injection, schedule: Q01DX005 (ip), vehicle: saline with Tween-80
[14] = dose: 60.0 mg/kg/injection, schedule: Q01DX005 (ip), vehicle: saline with Tween-80
[15] = dose: 240.0 mg/kg/injection, schedule: Q01DX005 (ip), vehicle: saline with Tween-80

Compound: CCOC(=O)c1c[n+](C2OC(COC(=O)c3ccccc3)C(OC(=O)c3ccccc3)C2OC(=O)c2ccccc2)ccc1N (stereo not drawn)
- T/C (dose: 12.5 mg/kg/injection, schedule: Q01DX005 (ip), vehicle: saline with Tween-80): 98 % of control
- T/C [1]: 107 % of control
- T/C [2]: 105 % of control and 92 % of control

Compound: O=C(O)C(O)COc1nsnc1N1CCOCC1 (stereo not drawn)
- T/C [3]: 107 % of control
- T/C [4]: 102 % of control
- T/C [5]: 107 % of control

Compound: O=S(=O)(O)c1c(O)ccc2nc3ccccc3nc12
- T/C [6]: 99 % of control and 97 % of control
- T/C (dose: 25.0 mg/kg/injection, schedule: Q01DX009 (ip), vehicle: saline): 98 % of control and 96 % of control
- T/C [7]: 103 % of control and 104 % of control and 106 % of control
- T/C [8]: 98 % of control
- T/C [9]: 96 % of control

Compound: CC(=O)c1ccc2c(c1)NC(=O)CC(C)N2 (stereo not drawn)
- T/C [10]: 99 % of control
- T/C [11]: 99 % of control
- T/C [12]: 103 % of control

Compound: O=C1OC(=O)N2CSCC12 (stereo not drawn)
- T/C [10]: 101 % of control
- T/C [11]: 96 % of control
- T/C [12]: 92 % of control

Compound: CSc1nccc(=O)n1-c1ccccc1C
- T/C (dose: 100.0 mg/kg/injection, schedule: Q04DX002 (ip), vehicle: Klucel (hydroxypropylcellulose) (HPC)): 100 % of control
- T/C (dose: 200.0 mg/kg/injection, schedule: Q04DX002 (ip), vehicle: Klucel (hydroxypropylcellulose) (HPC)): 102 % of control

Compound: CNC(=O)NS(=O)(=O)c1cnccc1Cl
- T/C (dose: 100.0 mg/kg/injection, schedule: Q01DX001 (ip), vehicle: saline with Tween-80): 97 % of control
- T/C (dose: 200.0 mg/kg/injection, schedule: Q01DX001 (ip), vehicle: saline with Tween-80): 100 % of control
- T/C (dose: 400.0 mg/kg/injection, schedule: Q01DX001 (ip), vehicle: saline with Tween-80): 97 % of control

Compound: COc1cccc2c1C(=O)c1c(O)c3c(c(O)c1C2=O)C[C@@](O)(/C(C)=N\NC(=O)CO)C[C@@H]3OC1CC(N)C(O)C(C)O1 (stereo partly drawn)
- T/C (dose: 0.29 mg/kg/injection, schedule: Q04DX003 (ip), vehicle: saline): 118 % of control
- T/C (dose: 0.78 mg/kg/injection, schedule: Q01DX009 (ip), vehicle: water): 153 % of control
- T/C (dose: 1.0 mg/kg/injection, schedule: Q01DX009 (ip), vehicle: saline): 152 % of control
- T/C (dose: 1.0 mg/kg/injection, schedule: Q04DX003 (ip), vehicle: saline): 150 % of control
- T/C (dose: 1.32 mg/kg/injection, schedule: Q04DX003 (ip), vehicle: saline): 150 % of control
- T/C (dose: 1.5 mg/kg/injection, schedule: Q01DX009 (ip), vehicle: saline): 154 % of control
- T/C (dose: 1.56 mg/kg/injection, schedule: Q01DX009 (ip), vehicle: water): 160 % of control
- T/C (dose: 2.0 mg/kg/injection, schedule: Q01DX009 (ip), vehicle: water): 166 % of control
- T/C (dose: 2.0 mg/kg/injection, schedule: Q04DX003 (ip), vehicle: saline): 154 % of control
- T/C (dose: 2.25 mg/kg/injection, schedule: Q01DX009 (ip), vehicle: saline): 189 % of control
- T/C (dose: 2.5 mg/kg/injection, schedule: Q04DX003 (ip), vehicle: water): 119 % of control
- T/C (dose: 3.0 mg/kg/injection, schedule: Q04DX003 (ip), vehicle: saline): 177 % of control
- T/C (dose: 3.13 mg/kg/injection, schedule: Q01DX009 (ip), vehicle: water): 180 % of control
- T/C (dose: 4.0 mg/kg/injection, schedule: Q01DX009 (ip), vehicle: water): 192 % of control
- T/C (dose: 5.0 mg/kg/injection, schedule: Q04DX003 (ip), vehicle: water): 119 % of control
- T/C (dose: 6.25 mg/kg/injection, schedule: Q01DX009 (ip), vehicle: water): 108 % of control
- T/C (dose: 40.0 mg/kg/injection, schedule: Q04DX003 (ip), vehicle: water): 90 % of control
- T/C (dose: 80.0 mg/kg/injection, schedule: Q04DX003 (ip), vehicle: water): 90 % of control and 96 % of control

Compound: COc1ccc(Cc2noc(=O)[nH]2)cc1
- T/C (dose: 50.0 mg/kg/injection, schedule: Q01DX009 (ip), vehicle: saline with Tween-80): 104 % of control
- T/C (dose: 100.0 mg/kg/injection, schedule: Q01DX009 (ip), vehicle: saline with Tween-80): 104 % of control
- T/C (dose: 200.0 mg/kg/injection, schedule: Q01DX009 (ip), vehicle: saline with Tween-80): 106 % of control

Compound: Cn1c(=O)oc2cc(N)c(Cl)cc21
- T/C (dose: 12.5 mg/kg/injection, schedule: Q01DX005 (ip), vehicle: Klucel (hydroxypropylcellulose) (HPC)): 88 % of control
- T/C (dose: 25.0 mg/kg/injection, schedule: Q01DX005 (ip), vehicle: Klucel (hydroxypropylcellulose) (HPC)): 94 % of control
- T/C [10]: 100 % of control and 87 % of control

Compound: O=C(O)C(=O)O.O=C(O)C(=O)O.OO.OO.[Nb]
- T/C [6]: 98 % of control

Compound: [O-][n+]1nc(Cl)nc2ccccc21
- T/C (dose: 10.0 mg/kg/injection, schedule: Q01DX009 (ip), vehicle: Klucel (hydroxypropylcellulose) (HPC)): 105 % of control
- T/C (dose: 20.0 mg/kg/injection, schedule: Q01DX009 (ip), vehicle: Klucel (hydroxypropylcellulose) (HPC)): 107 % of control

Compound: Clc1nc2cc3c(cc2n2cccc12)oc1ccccc13
- T/C [1]: 108 % of control
- T/C [2]: 110 % of control
- T/C (dose: 100.0 mg/kg/injection, schedule: Q01DX005 (ip), vehicle: saline with Tween-80): 110 % of control
- T/C (dose: 200.0 mg/kg/injection, schedule: Q01DX005 (ip), vehicle: saline with Tween-80): 110 % of control

Compound: Cc1cc2c(=O)cc(-c3ccccc3)oc2c(C(=O)O)c1C
- T/C [13]: 103 % of control
- T/C [14]: 114 % of control and 118 % of control
- T/C [15]: 161 % of control

Compound: COc1ccc([N+](=O)[O-])cc1NC(=O)c1ccc2c(c1)C(=O)OC2=O
- T/C (dose: 7.5 mg/kg/injection, schedule: Q01DX005 (ip), vehicle: saline with Tween-80): 97 % of control
- T/C (dose: 15.0 mg/kg/injection, schedule: Q01DX005 (ip), vehicle: saline with Tween-80): 87 % of control
- T/C [13]: 90 % of control and 94 % of control
- T/C [14]: 89 % of control
- T/C [15]: 93 % of control

Compound: Nc1ccc(C2NC(=O)Cc3ccccc32)cc1 (stereo not drawn)
- T/C [7]: 92 % of control
- T/C [8]: 90 % of control
- T/C [9]: 86 % of control

Compound: COc1nc(NC2OC(COC(C)=O)C(OC(C)=O)C(OC(C)=O)C2OC(C)=O)c(C(=O)CCl)c(=O)[nH]1 (stereo not drawn)
- T/C [14]: 93 % of control
- T/C (dose: 120.0 mg/kg/injection, schedule: Q01DX005 (ip), vehicle: saline with Tween-80): 90 % of control
- T/C [15]: 101 % of control

Compound: OCCCC(=S)NCCNC(=S)CCCO
- T/C (dose: 60.0 mg/kg/injection, schedule: Q01DX005 (ip), vehicle: Klucel (hydroxypropylcellulose) (HPC)): 101 % of control
- T/C (dose: 120.0 mg/kg/injection, schedule: Q01DX005 (ip), vehicle: Klucel (hydroxypropylcellulose) (HPC)): 92 % of control
- T/C (dose: 240.0 mg/kg/injection, schedule: Q01DX005 (ip), vehicle: Klucel (hydroxypropylcellulose) (HPC)): 101 % of control

Compound: O=C1CCCCCCCCCCCCCCO1
- T/C [3]: 97 % of control
- T/C [4]: 106 % of control
- T/C [5]: 102 % of control
- T/C (dose: 400.0 mg/kg/injection, schedule: Q01DX009 (ip), vehicle: Klucel (hydroxypropylcellulose) (HPC)): 106 % of control

Compound: CC(C)C1=CC2=CCC3C(C)(C(N)=O)CCCC3(C)C2CC1CC#N (stereo not drawn)
- T/C (dose: 100.0 mg/kg/injection, schedule: Q04DX003 (ip), vehicle: saline with Tween-80): 95 % of control
- T/C (dose: 200.0 mg/kg/injection, schedule: Q04DX003 (ip), vehicle: saline with Tween-80): 91 % of control
- T/C (dose: 400.0 mg/kg/injection, schedule: Q04DX003 (ip), vehicle: saline with Tween-80): 91 % of control

Compound: CC(C)(C)OC(=O)NC(Cc1c[nH]c2ccccc12)C(=O)NC(Cc1ccccc1)C(=O)NN (stereo not drawn) (Boc-Trp-Phe-NHNH2; configuration not given here)
- T/C [3]: 92 % of control
- T/C [4]: 88 % of control
- T/C [5]: 91 % of control

Compound: O=c1nc(Oc2ccc([N+](=O)[O-])cc2)nc2ccccn12
- T/C [3]: 99 % of control
- T/C [4]: 87 % of control
- T/C [5]: 87 % of control
